Patent publication US5688789A, “PCP receptor ligands and the use thereof” (State of Oregon, acting by and through the Oregon State …, priority 1995, dated 1997)

Legend:
PCP receptor [1] = experiment: PCP receptor affinity of IDDC analogs vs. [3H]MK-801 in rat brain membrane (Example 10, Table 2); settings: read-out: PCP Receptor Affinity IC50 in Rat Brain Membrane vs. [3H]MK-801, MEAN
PCP receptor [2] = experiment: PCP receptor binding against 3H-MK-801 (Example 5, Table 1); settings: vs. 3H-MK-801; ± sem (n)
Description: The PCP receptor binding properties of various compounds of the invention against ^3 H-5-methyl-10,11-dihydro-5H-dibenzo[a,d]cycloheptene-5,10-imine (^3 H-MK-801) were determined.

rat hippocampal cells = experiment: In vitro neurotoxicity assay: protection against glutamate, Trypan Blue survival count (Example 7); format: cell-based; settings: 5 uM, glutamate 0-1000 uM, 1 uM glycine
Description: In the cytotoxicity studies, cultured mammalian neurons expressing EAA receptors are exposed in vitro to glutamate and the particular compound under investigation. The survival percentage of cells indicates the ability of the compound to protect against glutamate-induced neuronal death.
Dissociated rat hippocampal cultures were prepared using a modification of the method of Huettner and Baughman [Huettner, J. E. and Baugham, R. W., J. Neurosci. 6:3044-3060 (1986)]. The cortices were removed from 1-3 day post-natal rats (Sprague-Dawley) that had been anesthetized with chloral hydrate, and the hippocampi were dissected out and placed in Cl^- free dissociation medium supplemented with 1 mM kynurenic acid and 10 mM MgSO4 (Choi, D. W., J. Neurosci. 7:369-379 (1987)). The hippocampi were washed in the dissociation medium, then incubated for 2×20 minutes at 37° C. in dissociation medium containing 10 units/ml of Papain (Worthington). After the enzyme treatment, the tissue was incubated for three 5-minute periods at 37° C. with 10 mg/ml trypsin inhibitor (Sigma type II-0).
The cells were dissociated by trituration in growth medium and plated as 0.15 ml droplets of cell suspension onto the center of 35 mm Primaria (Falcon) dishes that had been stamped with a labeled 26×26 grid of approximately 0.64 cm^2 total area using a Mecanex BB form (WPI, New Haven, Conn.) and coated with poly-D-lysine and laminin (Collaborative Research). The cell density was between 2.5 and 4.0×10^5 cells per dish. The growth medium was Eagles minimum essential media (MEM, Earle's salts) supplemented with 5% fetal bovine serum (CCL), 5% defined supplemented calf serum (HyClone), 50 mM glucose, 50 units/ml penicillin/streptomycin and MITO+serum extender (Collaborative Research). The cells were maintained at 37° C. in a humidified 4.5% CO2 atmosphere. […]
Before treatment, sister cultures were examined under phase-contrast microscopy to ensure that the cultures were of a similar density. […] The cultures were washed three times and the surviving cells counted in the grid area using phase contrast microscopy. […]

[3] = tested on: NMDA receptor-ion channel complex; experiment: Whole-cell patch clamp: block of NMDA-induced currents on cultured rat hippocampal neurons (Example 6); format: cell-based; settings: rat hippocampal neurons, compared with MK-801
Description: In the electrophysiological studies the compounds are evaluated with respect to their ability to block the ion channel of the NMDA receptor channel complex and thereby inhibit Ca^2+ and Na^+ ion flow into the nerve cell. Initially, the ion channels are opened by activating the NMDA receptor. Ion flow is determined by measuring the passage of electrical current, i.e., a use-dependent decrease in electrical current indicates blocking of the ion channel due to binding of a ligand at a site within the channel.
Hippocampal neurons were obtained from the CA1 region of the hippocampus from 1-3 day-old-newborn rats (Long-Evans). Small blocks of tissue ([…]1mm^3) were incubated in papain (20 units ml^-1; Worthington-Cooper) for 30 minutes. The tissue was dissociated into a single cell suspension by trituration with a fire-polished Pasteur pipette in complete growth medium (Earle's MEM, 20 mM glucose, 50 units/ml penicillin/streptomycin, 5% heat-inactivated fetal calf serum, Serum Extender from Collaborative Research) containing 2.5 mg/ml bovine serum albumin and 2.5 mg/ml trypsin inhibitor (Sigma). The cells were plated onto glass coverslips coated with collagen/poly-D-lysine. Cultures were fed every 3 days by replacing haft the volume of medium. Arabinosylcytosine (5×10^-6 M) was added to the cultures for 1 or 2 days during the first week after plating to suppress the proliferation of non-neuronal cells.
All electrophysiology experiments were performed with the whole-cell mode of patch clamp recording [Hamill, O. D., Marty, A., Neher, E., Sakman, B., and Sigworth, F. J., Pflugers Arch. 391:85-100 (1981)] from neurons grown for 1-3 weeks in culture. Agonists and agonist/antagonist combinations were applied by a U-tube mol (Fenwick et al, J. Physiol. 331:577-597 (1982)) to neurons in whole-cell experiments. The external solution contained (in mM) NaCl 140, KCl 3.5, CaCl2 1, glucose 5, picrotoxinin 0.02, tetrodotoxin (TTX) 5×10^-4, and N-2-hydroxyethyl-piperazine-N'-2-ethanesulfonic acid (HEPES) 10. The pH of this solution was adjusted to 7.4 with NaOH. The internal (patch electrode) solution contained (mM) Cs-methanesulfonate 120, CsCl 10, ethyleneglycol-bis-(β-aminoethylether)-N,N,N',N'-tetraacetic acid (EGTA) 10, HEPES 10 (pH adjusted to 7.0 with CsOH). Membrane current was filtered at 4000 Hz (-3dB; 8-pole Bessel) and recorded on magnetic tape for later analysis. Experiments were performed at room temperature (20°-25° C.). [Sources of chemicals: N-methyl-D-aspartate, Cambridge Research Biochemicals; pirotoxinin, Sigma Chemical Company; salts for recording solutions, Aldrich (Gold Label) or Alfa (Puratronic). [^3 H]Kainate and [3H]CPP and [^3 H]AMPA were purchased from Dupont/NEN (Boston, Mass.)].
Repetitive applications (every 30 s) to the same cell produced currents which varied less than 5% over a period of at least 30 minutes.

[4] = tested on: lesions caused by NMDA injection; experiment: In vivo neurotoxicity assay: protection against lesions caused by cerebral NMDA injection (Example 8); settings: about 0.30 to 60 μMol/kg, intraperitoneal, 15 minutes following cerebral NMDA injection
Excerpt: In the in vivo neurotoxicity studies, the experimental model of McDonald, D. W., et al., (In: Sigma and Phencyclidine-like Compounds as Molecular Probes in Biology, Ed. Domino, E. F., and Kamenka, J.-M., pp. 697-707 (1988), NPP Books, Ann Arbor, Mich.) may be employed. In this model, NMDA injection into one cerebral hemisphere causes injury which resembles the lesion produced by hypoxia-ischemia. The ability of compounds to limit the NMDA-induced lesion is a measure of their neuroprotective properties; since the compounds may be administered intraperitoneally, the model can also provide information about a compound's ability to cross the blood-brain barrier.
The experimental model of McDonald, J. W., et al., supra, was employed with the single alteration in protocol of an intraperitoneal injection of the test compound 15 minutes following, rather than preceding, the cerebral NMDA injection.

Compound	IC50 (PCP receptor [1]) [nM]	IC50 (PCP receptor [2]) [nM]	cell survival compared to control (rat hippocampal cells)	use-dependent blockage of NMDA-induced (+glycine) responses [3]	protection against lesions caused by NMDA injection [4]
c1ccc2c(c1)C[C@H]1NC[C@@H]2c2ccccc21 [(+)-IDDC, (+)-10(R),5(S)-(iminomethano)-10,11-dihydro-5H-dibenzo[a,d]cycloheptene]	40	40 ± 5	enhanced cell survival when compared to control values	very similar to the use dependent blocking action exhibited by MK-801	protect against the lesions caused by NMDA injection
c1ccc2c(c1)CC1NCC2c2ccccc21 (racemic) [(±)-IDDC, (±) 10,5-(iminomethano)-10,11-dihydro-5H-dibenzo[a,d]cycloheptene]	74.6	41 ± 6	enhanced cell survival when compared to control values	–	–
